Read-outs that look alike come from different tables or passages of the source.

One assay deals with T1, ePL-tagged CK1a (Homo sapiens, UniProt P48729+Q96SW2).
T1 construct: expressed in transfected cells
The assay can be described thus: ePL-tagged substrate degradation in MDS-L cells. It is filed as cell-based. The procedure: DF15 multiple myeloma cells stably expressing ePL-tagged Aiolos, Ikaros, or GSPT1, and MDS-L cells stably expressing ePL-tagged CK1a were generated via lentiviral infection with pLOC-ePL-Aiolos (or Ikaros, GSPT1, or CK1a). […] Compounds were dispensed by an acoustic dispenser (ATS acoustic transfer system from EDC Biosystems) into a 384-well plate in a 10-point dose response curve using 3-fold dilutions starting at 10 μM and going down to […]. Then, 25 μL of media (RPMI-1640+10% heat inactivated FBS+25 mM Hepes+1 mM Na pyruvate+1× NEAA+1×Pen Strep Glutamine) containing 5000 of DF15 or MSD-L cells was dispensed per well. Assay plates were incubated at 37° C. with 5% CO2 for 4 hours except 20 hours for GSPT1. After incubation, 25 μL of the InCELL Hunter detection reagent working solution (DiscoverX, catalogue no. 96-0002, Fremont, Calif.) was added to each well and incubated at room temperature for 60 min protected from light. After 60 min, luminescence was read on an Envision or PHERAstar luminescence reader.
To determine the EC50 value of a compound for the degradation of a given substrate (concentration of compound that achieves half the maximum degradation observed), a four-parameter logistic model (sigmoidal dose—response model) (FIT=(A+{(B−A)/1+[(C/x)D]})) where C is the inflection point (EC50), D is the […], and A and B are the low and high limits of the fit, respectively) was used. All substrate degradation curves were processed and evaluated using ActivityBase (IDBS), a data analysis software package. Ymin is minimum percent protein remaining.

Assay [1] deals with CD19 CARs tagged with IKZF1 ZNF2_ZNF3 Q1F. The assay can be described thus: Small-molecule screen: Q1F degron-tagged CD19 CAR levels in Jurkat cells, flow cytometry. It is filed as cell-based, human. The settings on record: versus Helios, Aiolos, Ikaros, GSPT1, CK1a.
Assay [2] deals with IKZF1 ZNF2_3 Q1F tagged CD19 CAR. The assay can be described thus: Jurkat reporter assay (tdTomato), signaling of Q1F-tagged CAR after degradation. It is filed as cell-based, human. The following applies: 1 mM pre-treatment 12 hours, co-culture with CD19-expressing K562 8 hours. The procedure:
A lentiviral vector encoding ZNF2_3 Q1F or Q1F/G6N tagged CD19 CAR was transduced into the reporter cell line. […] Levels of tdTomato in the form of the overall percent of positive cells (FIG. 12A), as well as mean fluorescence intensity (MFI, FIG. 12B) were assessed by flow cytometry. Degradation of CARs containing the ZNF2_3 Q1F degron decreased signaling by around 30% using 1 mM Compound C and by around 75% using Compound B; this relative difference correlates with the depth of degradation seen for each. Further, the reduction in activity depends upon having an intact G-motif, as the G6N mutation prevents inhibition.

In assay [3] the target is T2, CD19 CARs tagged with IKZF1 ZNF2_ZNF3 Q1F (Homo sapiens, UniProt Q13422, Q146F).
T2 construct: EC50 (Q1F degron); other: Jurkat cells, 18 hours, CAR levels normalized to no drug; Ymin (Q1F degron); Ymin (%); minimum percent protein remaining; Nluc reporter
The assay is described as follows: Small-molecule screen: Q1F degron-tagged CD19 CAR levels in Jurkat cells, flow cytometry. The assay is classed as cell-based. The method, then:
A set of potential degron-targeting compounds was screened against the Q1F degron, resulting in a set of potent degron/small-molecule pairs. Lentiviral vectors containing CD19 CARs tagged with IKZF1 ZNF2_ZNF3 Q1F Nluc were transduced into Jurkat cells. The CD19 CAR was similar to the CD19 CAR in Example 2, but comprising the ZNF2_ZNF3 Q1F degron (SEQ ID NO: 19). Transduced cells were treated with a titration of each small molecule or no drug and then incubated at 37° C. for 18 hours. Cells were washed and stained with appropriate staining reagent to measure CAR levels. The cells were incubated at 4° C. in the staining reagents for 20 mins and then washed 3 times before being read on the flow cytometer. CAR levels were normalized to cells that had not been treated with drug. EC50 and Ymin values were calculated using the resulting titration curve. This identified small molecules that potently degraded the Q1F degron-tagged CARs (Table 1).

The target in assay [4] is T3, IKZF1 ZNF2_3 Q1F tagged CD19 CAR (Homo sapiens, UniProt Q13422, Q146F).
T3 construct: expressed in transfected cells; host or cells: Jurkat wild type, Jurkat CRBN knockout, Jurkat reporter line; lentiviral transduction
The assay is described as follows: CRBN and ubiquitin-proteasome pathway dependence of Q1F-tagged CAR degradation in Jurkat cells. The assay is classed as cell-based. Details: tagged CAR remaining / levels of tagged CAR: dose or concentration left out as unconfirmed. The following applies: Jurkat CRBN KO cells, 1 hour. The method, then: (§1) The dependence of Q1F-degron-tagged CAR degradation on CRBN and ubiquitin proteolytic pathway were assessed. CD19-targeting CAR was tagged with either IKZF1 ZNF2_3 Q1F (SEQ ID NO: 19) or Q1F/G6N (SEQ ID NO: 59). Lentiviral vectors containing these tagged CARs were then transduced into wildtype (WT) or cereblon (CRBN) knockout (KO) Jurkat cells.
(§2) Next, dependence of CAR degradation on the ubiquitin-proteosome pathway was tested by treating WT Jurkats transduced with tagged CAR for 2 hours with DMSO, 20 nM or 200 nM Compound C alone, or alongside either 2 μM of the NEDD8 E1 enzyme inhibitor MLN4924 or 2 μM of proteasome blocker Bortezomib (FIG. 11C).

The test system of assay [5] is IKZF1 ZNF2_3 Q1F tagged CD19 CAR. Described as above. Further details: tagged CAR remaining / levels of tagged CAR: dose or concentration left out as unconfirmed. It is filed as cell-based, human. The method, then:
as §1, §2

Assay [6] relates to H-1975 ROR1 expressing target cell line. The assay can be described thus: Primary CAR T effector function (tumor killing, cytokine production) in co-culture. The following applies: 1:4 effector:target, 24 hours, different concentrations. It is filed as cell-based. The method, then: The ability to use compounds to titrate primary CAR T effector function by degrading IKZF1 ZNF2_3 Q1F tagged anti-ROR1 CAR (FIG. 13A) was evaluated. The CAR included similar transmembrane, costimulatory, and signaling domains as the CD19 CAR, but with an anti-ROR1 scFv. A lentiviral vector encoding ZNF2_3 Q1F tagged or untagged anti-ROR1 CAR was transduced into activated primary T cells. Transduced cells were expanded for 10 days in media supplemented with IL2, IL7, and IL15, then frozen. Prior to the experiment, cells were thawed and allowed to rest in media with a dose titration of Compound C or without drug. […] To determine the impacts of CAR degradation on CAR T activity, cells were then co-cultured with a Nuclight red labeled H-1975 ROR1 expressing target cell line at a 1:4 effector:target cell ratio. Co-cultures were placed in the Incucyte for 24 hours to monitor tumor killing via Nuclight red signal (FIG. 14A), and supernatants were collected to measure proinflammatory cytokine production by MSD (FIG. 14B-14D; IL-2, TNFα, and IFNγ).

T2 sequence (Q13422 whole entry Q146F): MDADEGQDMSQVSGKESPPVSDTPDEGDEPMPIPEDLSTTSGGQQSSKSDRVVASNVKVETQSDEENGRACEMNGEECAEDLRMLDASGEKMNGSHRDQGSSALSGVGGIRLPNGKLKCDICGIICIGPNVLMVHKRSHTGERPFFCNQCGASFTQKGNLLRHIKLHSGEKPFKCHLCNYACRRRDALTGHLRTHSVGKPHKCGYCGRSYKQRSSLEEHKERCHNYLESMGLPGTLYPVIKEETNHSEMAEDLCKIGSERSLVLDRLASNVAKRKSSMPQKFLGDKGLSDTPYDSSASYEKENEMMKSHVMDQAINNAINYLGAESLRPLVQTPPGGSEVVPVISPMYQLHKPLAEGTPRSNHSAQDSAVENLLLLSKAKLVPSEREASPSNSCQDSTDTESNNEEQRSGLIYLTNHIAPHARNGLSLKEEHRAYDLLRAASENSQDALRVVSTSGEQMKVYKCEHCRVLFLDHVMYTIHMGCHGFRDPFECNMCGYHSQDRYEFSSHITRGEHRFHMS
T1 sequence (P48729 whole entry): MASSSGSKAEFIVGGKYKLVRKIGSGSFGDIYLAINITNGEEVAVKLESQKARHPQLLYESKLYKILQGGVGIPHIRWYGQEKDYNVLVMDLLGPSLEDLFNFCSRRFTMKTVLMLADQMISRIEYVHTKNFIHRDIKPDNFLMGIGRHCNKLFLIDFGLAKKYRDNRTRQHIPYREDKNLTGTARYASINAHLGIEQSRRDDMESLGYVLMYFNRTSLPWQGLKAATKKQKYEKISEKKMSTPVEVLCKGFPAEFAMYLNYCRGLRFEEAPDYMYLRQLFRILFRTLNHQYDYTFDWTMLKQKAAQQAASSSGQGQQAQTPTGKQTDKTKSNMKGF
T1 sequence (Q96SW2 whole entry): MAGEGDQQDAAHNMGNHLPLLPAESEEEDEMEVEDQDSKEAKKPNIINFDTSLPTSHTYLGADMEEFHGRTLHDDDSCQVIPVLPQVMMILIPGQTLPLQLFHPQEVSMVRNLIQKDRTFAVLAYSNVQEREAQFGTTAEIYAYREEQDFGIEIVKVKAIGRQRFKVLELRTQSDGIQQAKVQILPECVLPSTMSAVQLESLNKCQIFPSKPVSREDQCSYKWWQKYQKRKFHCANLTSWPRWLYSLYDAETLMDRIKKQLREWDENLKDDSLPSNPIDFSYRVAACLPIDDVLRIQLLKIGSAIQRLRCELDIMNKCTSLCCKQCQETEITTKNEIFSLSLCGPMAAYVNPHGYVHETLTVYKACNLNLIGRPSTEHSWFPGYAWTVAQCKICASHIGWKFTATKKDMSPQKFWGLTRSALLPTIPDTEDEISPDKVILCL
T1 sequence (Q16531 whole entry partner): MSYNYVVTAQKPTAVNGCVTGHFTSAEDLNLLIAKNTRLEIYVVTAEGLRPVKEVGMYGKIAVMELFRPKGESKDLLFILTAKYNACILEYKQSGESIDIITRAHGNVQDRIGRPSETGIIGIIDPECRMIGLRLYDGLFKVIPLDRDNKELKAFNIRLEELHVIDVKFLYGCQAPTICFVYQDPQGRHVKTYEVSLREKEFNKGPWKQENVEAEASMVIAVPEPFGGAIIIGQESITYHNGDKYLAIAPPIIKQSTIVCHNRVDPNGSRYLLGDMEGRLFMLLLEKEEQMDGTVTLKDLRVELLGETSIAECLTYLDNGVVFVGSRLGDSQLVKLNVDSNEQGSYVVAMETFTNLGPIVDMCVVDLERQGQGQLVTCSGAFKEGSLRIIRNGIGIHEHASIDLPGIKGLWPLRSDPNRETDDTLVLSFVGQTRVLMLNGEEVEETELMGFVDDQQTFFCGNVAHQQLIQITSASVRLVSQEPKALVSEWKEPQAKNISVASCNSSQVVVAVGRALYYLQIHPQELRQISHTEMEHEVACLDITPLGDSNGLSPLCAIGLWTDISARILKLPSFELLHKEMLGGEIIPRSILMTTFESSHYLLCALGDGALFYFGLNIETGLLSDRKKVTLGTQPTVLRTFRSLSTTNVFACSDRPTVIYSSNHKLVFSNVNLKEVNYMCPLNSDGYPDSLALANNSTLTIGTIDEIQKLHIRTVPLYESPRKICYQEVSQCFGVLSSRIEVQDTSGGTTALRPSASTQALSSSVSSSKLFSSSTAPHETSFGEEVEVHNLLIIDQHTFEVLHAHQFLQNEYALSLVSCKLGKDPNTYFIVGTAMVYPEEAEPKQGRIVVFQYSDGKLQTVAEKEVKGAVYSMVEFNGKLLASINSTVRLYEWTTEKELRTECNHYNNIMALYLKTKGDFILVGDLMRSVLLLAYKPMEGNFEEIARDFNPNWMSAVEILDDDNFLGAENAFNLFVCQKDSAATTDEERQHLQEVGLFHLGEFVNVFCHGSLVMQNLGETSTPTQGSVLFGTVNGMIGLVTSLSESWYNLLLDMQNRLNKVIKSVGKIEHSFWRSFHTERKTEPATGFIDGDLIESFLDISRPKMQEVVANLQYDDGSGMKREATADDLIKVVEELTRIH
T3 sequence (Q13422 141-196 Q146F): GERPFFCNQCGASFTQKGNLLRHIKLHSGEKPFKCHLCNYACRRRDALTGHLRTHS

In the case of `Cc1ncccc1N1CCN(Cc2ccc3c(c2)CN(C2CCC(=O)NC2=O)C3=O)CC1` (stereo not shown) [Compound C, 3-(5-((4-(2-methylpyridin-3-yl)piperazin-1-yl)methyl)-1-oxoisoindolin-2-yl)piperidine-2,6-dione], the “Ymin (%)” value came out at 98% on ePL-tagged CK1a and 12% in assay [3] (Degron Q1F (from Table 1), minimum percent protein remaining). Besides, the DC50 on ePL-tagged CK1a (CK1a, MDS-L cells, 4 hours, read-out: EC50 (the source's name)) is more than 10000 nM; in assay [3] (Degron Q1F (from Table 1), read-out: EC50 (the source's name)), 23 nM; in assay [3] (Jurkat assay described in Example 5, read-out: EC50 for the Q1F degron) it was less than 25 nM; in assay [3] (Jurkat cells, 18 hours, CAR levels normalized to no drug, read-out: EC50 (Q1F degron)), 23 nM. In addition, the “selectivity for the Q1F degron (in words)” value in assay [1] is listed as “highly selective for the Q1F degron”. Also, the “decrease of signaling (tdTomato reporter)” value in assay [2] is “around 30%”. Moreover, the “Ymin (Q1F degron)” value in assay [3] (Jurkat cells, 18 hours, CAR levels normalized to no drug) is recorded as 12%. Also, the “levels of tagged CAR” value in assay [4] is listed as “remained identical to untagged CAR”. Moreover, the “tagged CAR remaining” value in assay [5] (WT Jurkat cells, 1 hour) is “below 20%”. Further, in assay [5] (WT Jurkats, 2 hours, 20 nM or 200 nM, alongside 2 μM MLN4924 or 2 μM Bortezomib), the “tagged CAR degradation in the presence of inhibitor” value is “failure to degrade tagged CAR”. Besides, the “effector function of primary CAR T cells (killing and cytokine production)” value in assay [6] is on record as “could be titrated”.
